System: PDX model FHSC04
Test: RNA-seq PD gene change in SCLC PDX model FHSC04 treated in vivo
Parameters: species or system mice
Details: 400 μg/kg oral gavage
Method: To confirm the results obtained for small cell lung cancer cell line xenograft, changes in PD markers Notch1, ASCL1 and GRP were evaluated in PDX model FHSC04 treated in vivo with LSD1i (trans)-N1-((1R,2S)-2-phenylcyclopropyl)cyclohexane-1,4-diamine (FIG. 13). Eight to twelve-week-old NOD scid gamma mice were implanted with 1.0×10^6 disaggregated cells from PDX model FHSC04 in 100 μl of 1:1 HITES media:Matrigel. […] Once tumor volume reached 150-200 mm^3, mice were randomly assigned to treatment groups for 21-35 days, depending on the kinetics of growth in the given model. Animals were treated with saline or with 400 μg/kg ((trans)-N1-((1R,2S)-2-phenylcyclopropyl)cyclohexane-1,4-diamine, delivered by oral gavage once every 7 days, dissolved to 10 ml/kg with 0.9% saline solution. For the 10-day treatment in FHSC04 used for molecular analyses, an additional dose of 400 μg/kg (trans)-N1-((1R,2S)-2-phenylcyclopropyl)cyclohexane-1,4-diamine was given 4 hours before tissue collection.
For RNA-seq analyses using PDX samples in vivo, the Ultra RNA Library Prep Kit for Illumina (New England BioLabs; catalog E753L) was used to generate libraries from total RNA. All library preparation was conducted according to the manufacturer's instructions. Single-end sequencing (50 bp) was performed using an Illumina HiSeq 2500, reads of low quality were filtered prior to alignment to the hg19 genome build using TopHat v2.0.12 (Trapnell et al. Bioinformatics 2009 May 1; 25(9): 1105-1111). In vivo PDX samples were also aligned to mm9, where the mouse and human alignments from a given sample were compared, discarding from downstream analysis those reads which had fewer mismatches to mouse, relative to human. Cuffdiff v2.1.1 (Trapnell et al. Nat Biotechnol. 2013 January; 31(1):46-53) was used to generate fragment per kilobase per million (FPKM) expression values. Counts (CPM) were generated from TopHat alignments using the Python package HTSeq v0.6.1 (Anders et al. Bioinformatics. 2015 Jan. 15; 31(2): 166-169) using the “intersection-strict” overlap mode. […]

N[C@H]1CC[C@H](N[C@@H]2C[C@H]2c2ccccc2)CC1 [RG6016, (trans)-N1-((1R,2S)-2-phenylcyclopropyl)cyclohexane-1,4-diamine]
ASCL1 transcript regulation (FIG. 13): down regulation
GRP transcript regulation (FIG. 13): down regulation
NOTCH1 transcript regulation (FIG. 13): up regulation
